Biological target: T1, human GIVA cPLA2 (Homo sapiens, UniProt P47712)
T1 sequence (P47712 1-749): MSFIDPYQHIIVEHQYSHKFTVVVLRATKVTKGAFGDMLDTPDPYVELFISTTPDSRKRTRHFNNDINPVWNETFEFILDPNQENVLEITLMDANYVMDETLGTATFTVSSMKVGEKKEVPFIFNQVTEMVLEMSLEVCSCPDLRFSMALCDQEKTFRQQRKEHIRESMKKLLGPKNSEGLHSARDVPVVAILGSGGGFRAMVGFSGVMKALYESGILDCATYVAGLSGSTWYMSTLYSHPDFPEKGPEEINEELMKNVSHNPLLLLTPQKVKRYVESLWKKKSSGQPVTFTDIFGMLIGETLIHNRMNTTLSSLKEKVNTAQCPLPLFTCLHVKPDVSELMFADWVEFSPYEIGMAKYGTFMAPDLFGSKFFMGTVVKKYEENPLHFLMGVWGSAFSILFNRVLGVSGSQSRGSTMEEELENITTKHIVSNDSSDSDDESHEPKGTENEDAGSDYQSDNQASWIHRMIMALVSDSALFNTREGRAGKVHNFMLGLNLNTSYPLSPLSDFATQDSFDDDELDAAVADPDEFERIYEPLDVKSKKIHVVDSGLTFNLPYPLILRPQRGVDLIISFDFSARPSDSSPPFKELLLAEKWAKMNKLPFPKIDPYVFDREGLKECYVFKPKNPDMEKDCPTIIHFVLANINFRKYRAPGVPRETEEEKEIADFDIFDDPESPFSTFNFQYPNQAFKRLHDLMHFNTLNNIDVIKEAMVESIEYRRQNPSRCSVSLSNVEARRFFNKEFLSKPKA
Assay: mixed micelle-based modified Dole assay, GIVA cPLA2 inhibition
Type: biochemical
Conditions: mole fraction of inhibitor in total substrate interface giving 50% inhibition

CCCCCCCCCCCCCCCC(=O)C(F)(F)F [compound 6, palmitoyl trifluoromethyl ketone, reference compound]
GIVA cPLA2 XI(50): 0.0223 mole fraction

CCCCCCCCCCCCCCC(F)C(=O)C(F)(F)F (centres unmarked) [compound 26, 1,1,1,3-Tetrafluoro-heptadecan-2-one]
GIVA cPLA2 XI(50): 0.0167 mole fraction

Reference: paper PMC2649009 (Journal of medicinal chemistry, 2008)
